Converted amounts (≈) assume the structure as drawn.
Assays:
[1] = molecular target: T1, kinesin heavy chain Motor (Homo sapiens, UniProt P33176); assay: Kinesin ATPase activity assay (ELIPA kit, inorganic phosphate); format: biochemical; details: ATPase activity of kinesin, n = 2, read-out: IC 50 (μg/ml) for Kinesin inhibition (converted)
T1 construct: kinesin heavy chain Motor (Cytoskeleton, Cat # KR01-A); purchased Cytoskeleton KR01-A
T1 sequence (P33176 8-325 limits assumed): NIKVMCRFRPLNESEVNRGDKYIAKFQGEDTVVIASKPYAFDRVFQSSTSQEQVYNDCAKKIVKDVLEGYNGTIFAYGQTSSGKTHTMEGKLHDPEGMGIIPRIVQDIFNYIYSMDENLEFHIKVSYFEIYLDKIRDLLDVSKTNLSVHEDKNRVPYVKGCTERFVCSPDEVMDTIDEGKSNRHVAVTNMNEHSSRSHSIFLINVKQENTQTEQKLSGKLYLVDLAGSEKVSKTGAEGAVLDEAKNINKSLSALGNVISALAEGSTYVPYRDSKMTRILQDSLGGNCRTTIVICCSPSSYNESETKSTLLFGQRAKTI

HeLa cell line = assay: MTT cytotoxicity assay on HeLa cells; details: Homo sapiens, 24 h, read-out: IC 50 (μg/ml) ± SD on HeLa cell line
Protocol: HeLa cell line was obtained from National Cell Bank of Iran, Pasteur Institute of Iran.
Cytotoxic effects of synthesized compounds were determined using the MTT [3-(4,5-dimethylthiazol-2-yl)-2,5-diphenyltetrazolium bromide] assay [18-20]. Briefly, 5000 HeLa cells/well were seeded in a 96-well plate and cultured overnight. Different concentrations of synthesized compounds were added to each well. […] Then, the medium was removed, and the purple formazan crystals were dissolved in 150 μl dimethylsulfoxide (Merck, Germany). Absorbance was measured at 545 nm (630 nm as a reference) in Synergy H4 Hybrid Multi-Mode Microplate Reader (Biotek, Model: H4MLFPTAD). IC50 was calculated using CalcuSyn (BioSoft).
HeLa cells were incubated with different concentrations of newly synthesized compounds for 24 h and cytotoxicities were evaluated using MTT assay.

Compound	IC50 [1] [µM]	melting point [°C]	IC50 (HeLa cell line) [µg/mL]
CC(=O)O[C@H]1C(=O)[C@@]2(C)[C@H]([C@H](OC(=O)c3ccccc3)[C@]3(O)C[C@H](OC(=O)[C@H](O)[C@@H](NC(=O)c4ccccc4)c4ccccc4)C(C)=C1C3(C)C)[C@]1(OC(C)=O)CO[C@@H]1C[C@@H]2O [Taxol, reference compound]	8.2		
CSc1ncc(C2NC(=S)NC3=C2C(=O)CC(C)(C)C3)n1Cc1ccccc1Cl (stereo not drawn) [Compound 4d, 4-[1-(2-chlorobenyl)-2-methylthio-1H-imidazol-5-yl]-1,2,3,4,7,8-hexahydro-7,7 dimethyl-2-thio oxoquinazoline-5-(6H)-one]		142	
CSc1ncc(C2NC(=O)NC3=C2C(=O)CC(C)(C)C3)n1Cc1ccc(F)cc1 (stereo not drawn) [Compound 4e, 4-[1-(4-fluorobenzyl)-2-(methylthio)-1H-imidazol-5-yl]-3,4,7,8 – tetrahydro-7,7 dimethyl quinazoline-2,5-(1H,6H)-diones]	232	82	110 ± 28 (≈ 265 µM)
CC1(C)CC(=O)C2=C(C1)NC(=S)NC2c1cccc(O)c1 (stereo not drawn) [dimethylenastrone, dimethylenastron, reference compound]			338 ± 26 (≈ 1120 µM)
CSc1ncc(C2NC(=S)NC3=C2C(=O)CC(C)(C)C3)n1Cc1ccc(F)cc1 (stereo not drawn) [Compound 4f, 4-[1-(4-fluorobenzyl)-2-methylthio-1H-imidazol-5-yl]-1,2,3,4,7,8-hexahydro-7,7-dimethyl-2-thiooxoquinazoline-5-(6H)-one]	460	149	339 ± 23 (≈ 787 µM)

Continued, in another order:

IC50 [1] [µM]	melting point [°C]	Compound	IC50 (HeLa cell line) [µg/mL]
183	149	CSc1ncc(C2NC(=O)NC3=C2C(=O)CC(C)(C)C3)n1Cc1ccccc1Cl (stereo not drawn) [Compound 4c, 4-[1-(2-chlorobenzyl)-2-(methylthio)-1H-imidazol-5-yl]-3,4,7,8-tetrahydro-7,7 dimethyl quinazoline-2,5-(1H,6H)-diones]	98 ± 19 (≈ 227 µM)
187	157	CSc1ncc(C2NC(=S)NC3=C2C(=O)CC(C)(C)C3)n1Cc1ccccc1 (stereo not drawn) [Compound 4b, 4-[1-benzyl-2-(methylthio)-1H-imidazol-5-yl)-1,2,3,4,7,8-hexahydro-7,7 dimethyl-2-thio oxoquinazoline-5-(6H)-one]	301 ± 22 (≈ 730 µM)
182	169	CSc1ncc(C2NC(=O)NC3=C2C(=O)CC(C)(C)C3)n1Cc1ccccc1 (stereo not drawn) [Compound 4a, 4-[1-benzyl-2-(methylthio)-1H-imidazol-5-yl)-3,4,7,8-tetrahydro-7,7 dimethyl-quinazoline-2,5-(1H,6H)-diones]	210 ± 21 (≈ 530 µM)

Reference: PMC3891991, “Synthesis and molecular modeling of six novel monastrol analogues: evaluation of cytotoxicity and kinesin inhibitory activity against HeLa cell line” (DARU Journal of Pharmaceutical Sciences, 2013)
